Reference: patent US4835152A, “1-(4-Aminophenyl)-4-methyl-7,8-methylenedioxy-3,4-dihydro-5H-2,3-b enzodiazepine and acid addition salts thereof same” (Biogal Gyogyszergyar, priority 1986, dated 1989)

Tests used:
[1] = Examination of stereotypy in rats (method of Costall and Naylor); assay type: in vivo; design: Stereotypy, average score: scale not given here; conditions: for Stereotypy (in words): rats
From the text: 3. Examination of stereotypy in rats
For the measurement of stereotypy the method of B. Costall and R. I. Naylor [Eur. J. Pharmacol. 18, 95 (1972)] was used. The score values in Table 4 are average score values obtained at the time of reading.

Acute toxicity in mice = conditions: mouse, in vivo
From the text: (§1) The acute toxicity values (LD50) of the compound of Example 1: […]

[2] = test system: oxotremorine-induced tremor; assay: Inhibition of oxotremorine-induced tremor in mice (method of Rathbun and Slater); assay type: in vivo, male CFLP mice; conditions: for Inhibition in relation to control group: oxotremorine 1 mg/kg i.p. 1 h later
Protocol: (§2) 4. Inhibition of oxotremorine in mice
(§3) The examinations were carried out according to the method of R. C. Rathbun and I. H. Slater [Psychopharm. 4, 114 (1963)]. One hour after male, starving CFLP mice were orally pre-treated with a dose of 6.25, 12.5 or 25.0 mg/kg of the compound of Example 1, they were intraperitoneally treated with a dose of 1 mg/kg of 1-[4-(1-pyrrolidinyl)-2-butinyl]-2-pyrrolidinone (oxotremorine).
(§4) The inhibition of oxotremorine-induced tremor and salivation exerted by the compound of Example 1 was measured in relation to the control group treated with oxotremorine only. The strength of the inhibition was expressed in scores (0, 0.5, 1, 2 or 3).

[3] = Motility studies on mice (spontaneous motor activity, two-hour experiment); assay type: in vivo, male mice; conditions: for Increase in motility: 2 h
Protocol: 1.a. Motility studies on mice
For studying how the compound prepared according to Example 1 increases the motility in male mice, two-hour experiments were carried out. In order to determine the spontaneous motor activity, the component of hunger-activitywas excluded (the mice were not fasted), thus only the exploratory activity was recorded. The test animals were placed into the observation box immediately after the intraperitoneal treatment.

Emetic side-effect = conditions: in vivo
[4] = Dependence studies, DAF (drug admixed food) method; conditions: 0.05% (w/w) in food, 6 weeks, average daily dose 40 mg/kg, two weeks after withdrawal, listed as compound of the invention
Acute toxicity in rats = conditions: rat, in vivo
From the text: as §1

[5] = Motility studies on rats (2 hours); assay type: in vivo, male CFY rats; conditions: for Increase in motility: 2 h
Protocol: 1.b. Motility studies on rats
Male CFY rats weighing 120 to 140 g were treated intraperitoneally in groups of three with a dose of 10, 20, 25 or 30 mg/kg of the compound of Example 1, and were immediately placed into the observation box. The experiment lasted for 2 hours.

[6] = test system: oxotremorine-induced salivation; assay: Inhibition of oxotremorine-induced salivation in mice; assay type: in vivo, male CFLP mice; conditions: 6.25-25.0 mg/kg p.o.
Protocol: as §2, §3, §4

[7] = test system: haloperidol-induced decrease in SMA; assay: Measurement of the haloperidol-antagonistic effect in mice (spontaneous motor activity, SMA); assay type: in vivo, male CFLP mice
Protocol: 2. Measurement of the haloperidol-antagonistic effect in mice
Male CFLP mice weighing 20 to 22 g were treated intraperitoneally with a dose of 0.5 mg/kg of 4-[4-(4-chlorophenyl)-4-hydroxy-1-piperidinyl]-1-(4-fluorophenyl)-1-butanone (haloperidol) and the spontaneous motor activity (SMA) was measured, in relation to the data obtained in the controls, by a capacitance-sensitive motimeter. Another group of the test animals was treated also with a dose of 30 mg/kg of the compound of Example 1, 15 minutes after the administration of haloperidol.

CC(C)C[C@H]1C(=O)N2CCC[C@H]2[C@]2(O)O[C@](NC(=O)[C@@H]3C=C4c5cccc6[nH]c(Br)c(c56)C[C@H]4N(C)C3)(C(C)C)C(=O)N12 [Bromocriptine, reference compound]
Stereotypy, average score ([1]; 5 mg/kg i.p., 30 min): 0.2
Stereotypy, average score ([1]; 5 mg/kg i.p., 60 min): 0.6
Stereotypy, average score ([1]; 5 mg/kg i.p., 120 min): 0.8
Stereotypy, average score ([1]; 5 mg/kg i.p., 180 min): 1.1
Stereotypy, average score ([1]; 5 mg/kg i.p., 240 min): 0.4
Stereotypy, average score ([1]; 10 mg/kg i.p., 30 min): 0.5
Stereotypy, average score ([1]; 10 mg/kg i.p., 60 min): 1.0
Stereotypy, average score ([1]; 10 mg/kg i.p., 120 min): 1.8
Stereotypy, average score ([1]; 10 mg/kg i.p., 180 min): 1.9
Stereotypy, average score ([1]; 10 mg/kg i.p., 240 min): 1.5
Stereotypy, average score ([1]; 20 mg/kg i.p., 30 min): 0.6
Stereotypy, average score ([1]; 20 mg/kg i.p., 60 min): 1.2
Stereotypy, average score ([1]; 20 mg/kg i.p., 120 min): 2.2
Stereotypy, average score ([1]; 20 mg/kg i.p., 180 min): 2.4
Stereotypy, average score ([1]; 20 mg/kg i.p., 240 min): 1.8
Stereotypy (in words) [1]: causes stereotypy

CC1Cc2cc3c(cc2C(c2ccc(N)cc2)=NN1)OCO3 (centres unmarked) [Example 1, 1-(4-aminophenyl)-4-methyl-7,8-methylenedioxy-3,4-dihydro-5H-2,3-benzodiazepine]
LD50 (Acute toxicity in mice; ip): 260 mg/kg
LD50 (Acute toxicity in mice; po): 300 mg/kg
Inhibition in relation to control group ([2]; 6.25 mg/kg p.o.): 17%
Inhibition in relation to control group ([2]; 12.5 mg/kg p.o.): 50%
Inhibition in relation to control group ([2]; 25.0 mg/kg p.o.): 74%
ED50 ([2]; Mus musculus, po, range (9.5-19.1) printed in the next line): 13.5 mg/kg
Effect on oxotremorine-induced tremor (in words) ([2]; mice): significantly decreases the tremor
Stereotypy, average score ([1]; 3.125 mg/kg i.p., 15 min): 0.3
Stereotypy, average score ([1]; 3.125 mg/kg i.p., 30 min): 0.3
Stereotypy, average score ([1]; 3.125 mg/kg i.p., 60 min): 0.1
Stereotypy, average score ([1]; 3.125 mg/kg i.p., 90 min): 0
Stereotypy, average score ([1]; 3.125 mg/kg i.p., 120 min): 0
Stereotypy, average score ([1]; 3.125 mg/kg i.p., 180 min): 0
Stereotypy, average score ([1]; 3.125 mg/kg i.p., 240 min): 0
Stereotypy, average score ([1]; 6.25 mg/kg i.p., 15 min): 1.0
Stereotypy, average score ([1]; 6.25 mg/kg i.p., 30 min): 1.3
Stereotypy, average score ([1]; 6.25 mg/kg i.p., 60 min): 0.3
Stereotypy, average score ([1]; 6.25 mg/kg i.p., 90 min): 0
Stereotypy, average score ([1]; 6.25 mg/kg i.p., 120 min): 0
Stereotypy, average score ([1]; 6.25 mg/kg i.p., 180 min): 0
Stereotypy, average score ([1]; 6.25 mg/kg i.p., 240 min): 0
Stereotypy, average score ([1]; 6.25 mg/kg p.o., 15 min): 0.7
Stereotypy, average score ([1]; 6.25 mg/kg p.o., 30 min): 0.7
Stereotypy, average score ([1]; 6.25 mg/kg p.o., 60 min): 0.6
Stereotypy, average score ([1]; 6.25 mg/kg p.o., 90 min): 0
Stereotypy, average score ([1]; 6.25 mg/kg p.o., 120 min): 0
Stereotypy, average score ([1]; 6.25 mg/kg p.o., 180 min): 0
Stereotypy, average score ([1]; 6.25 mg/kg p.o., 240 min): 0
Stereotypy, average score ([1]; 12.5 mg/kg i.p., 15 min): 1.2
Stereotypy, average score ([1]; 12.5 mg/kg i.p., 30 min): 1.3
Stereotypy, average score ([1]; 12.5 mg/kg i.p., 60 min): 1.1
Stereotypy, average score ([1]; 12.5 mg/kg i.p., 90 min): 1.0
Stereotypy, average score ([1]; 12.5 mg/kg i.p., 120 min): 0
Stereotypy, average score ([1]; 12.5 mg/kg i.p., 180 min): 0
Stereotypy, average score ([1]; 12.5 mg/kg i.p., 240 min): 0
Stereotypy, average score ([1]; 12.5 mg/kg p.o., 15 min): 0.4
Stereotypy, average score ([1]; 12.5 mg/kg p.o., 30 min): 0.9
Stereotypy, average score ([1]; 12.5 mg/kg p.o., 60 min): 1.4
Stereotypy, average score ([1]; 12.5 mg/kg p.o., 90 min): 0.4
Stereotypy, average score ([1]; 12.5 mg/kg p.o., 120 min): 0
Stereotypy, average score ([1]; 12.5 mg/kg p.o., 180 min): 0
Stereotypy, average score ([1]; 12.5 mg/kg p.o., 240 min): 0
Stereotypy, average score ([1]; 25.0 mg/kg i.p., 15 min): 1.3
Stereotypy, average score ([1]; 25.0 mg/kg i.p., 30 min): 1.5
Stereotypy, average score ([1]; 25.0 mg/kg i.p., 60 min): 1.8
Stereotypy, average score ([1]; 25.0 mg/kg i.p., 90 min): 1.6
Stereotypy, average score ([1]; 25.0 mg/kg i.p., 120 min): 1.0
Stereotypy, average score ([1]; 25.0 mg/kg i.p., 180 min): 0.8
Stereotypy, average score ([1]; 25.0 mg/kg i.p., 240 min): 0.4
Stereotypy, average score ([1]; 25.0 mg/kg p.o., 15 min): 0.7
Stereotypy, average score ([1]; 25.0 mg/kg p.o., 30 min): 1.1
Stereotypy, average score ([1]; 25.0 mg/kg p.o., 60 min): 1.5
Stereotypy, average score ([1]; 25.0 mg/kg p.o., 90 min): 0.6
Stereotypy, average score ([1]; 25.0 mg/kg p.o., 120 min): 0.6
Stereotypy, average score ([1]; 25.0 mg/kg p.o., 180 min): 0.3
Stereotypy, average score ([1]; 25.0 mg/kg p.o., 240 min): 0
Stereotypy, average score ([1]; 50.0 mg/kg i.p., 15 min): 1.5
Stereotypy, average score ([1]; 50.0 mg/kg i.p., 30 min): 2.1
Stereotypy, average score ([1]; 50.0 mg/kg i.p., 60 min): 2.7
Stereotypy, average score ([1]; 50.0 mg/kg i.p., 90 min): 2.4
Stereotypy, average score ([1]; 50.0 mg/kg i.p., 120 min): 2.4
Stereotypy, average score ([1]; 50.0 mg/kg i.p., 180 min): 1.7
Stereotypy, average score ([1]; 50.0 mg/kg i.p., 240 min): 0.6
Stereotypy, average score ([1]; 50.0 mg/kg p.o., 15 min): 1.7
Stereotypy, average score ([1]; 50.0 mg/kg p.o., 30 min): 1.9
Stereotypy, average score ([1]; 50.0 mg/kg p.o., 60 min): 2.3
Stereotypy, average score ([1]; 50.0 mg/kg p.o., 90 min): 2.3
Stereotypy, average score ([1]; 50.0 mg/kg p.o., 120 min): 1.9
Stereotypy, average score ([1]; 50.0 mg/kg p.o., 180 min): 1.1
Stereotypy, average score ([1]; 50.0 mg/kg p.o., 240 min): 0.2
Stereotypy (in words) [1]: causes stereotypy. This effect develops earlier but it is somewhat weaker than the effect of bromocriptine
Increase in motility ([3]; 3 mg/kg i.p.): 15%
Increase in motility ([3]; 10 mg/kg i.p.): 131%
Increase in motility ([3]; 30 mg/kg i.p.): 473%
Effect on motility or spontaneous motor activity (in words) ([3]; i.p.): increases the motility or spontaneous motor activity of mice and rats in a dose-dependent manner
Emetic side-effect (Emetic side-effect): does not have the unfavourable side-effects of the known psychostimulants (emetic effect, proneness to dependence)
Withdrawal symptoms or signs of dependence [4]: does not have the unfavourable side-effects of the known psychostimulants (emetic effect, proneness to dependence)
LD50 (Acute toxicity in rats; ip): 250 mg/kg
LD50 (Acute toxicity in rats; po): 350 mg/kg
Increase in motility ([5]; 10 mg/kg i.p.): 21%
Increase in motility ([5]; 20 mg/kg i.p.): 87%
Increase in motility ([5]; 25 mg/kg i.p.): 106%
Increase in motility ([5]; 30 mg/kg i.p.): 462%
Effect on motility or spontaneous motor activity (in words) ([5]; i.p.): increases the motility or spontaneous motor activity of mice and rats in a dose-dependent manner
Effect on oxotremorine-induced salivation (in words) [6]: does not inhibit the oxotremorine-induced salivation
Antagonism of haloperidol-induced decrease in SMA ([7]; 30 mg/kg, 15 min after haloperidol 0.5 mg/kg i.p.): significantly antagonized
Decrease in SMA ([7]; haloperidol 0.5 mg/kg i.p. + compound of Example 1 30 mg/kg i.p. 15 min later): 17.1%

O=C(CCCN1CCC(O)(c2ccc(Cl)cc2)CC1)c1ccc(F)cc1 [Haloperidol, 4-[4-(4-chlorophenyl)-4-hydroxy-1-piperidinyl]-1-(4-fluorophenyl)-1-butanone, reference compound]
Decrease in SMA ([7]; haloperidol alone, 0.5 mg/kg i.p., relative to controls): 62.6%
